Measurements: ChEMBL document CHEMBL4052721, “Gerontoxanthone B from Maclura cochinchinensis var. gerontogea exhibits anti-inflammatory potential as an aryl hydrocarbon receptor agonist” (Bioorg Med Chem, 2017)

What was measured:
Format in all cases: cell-based
[1] = target: T1, Aryl hydrocarbon receptor (Homo sapiens, UniProt P35869); assay: Agonist activity at AhR in human HepG2 cells at 5 to 20 nM after 42 hrs in presence of AhR antagonist GNF-351 by luciferase reporter gene assay
T1 sequence (P35869 whole entry): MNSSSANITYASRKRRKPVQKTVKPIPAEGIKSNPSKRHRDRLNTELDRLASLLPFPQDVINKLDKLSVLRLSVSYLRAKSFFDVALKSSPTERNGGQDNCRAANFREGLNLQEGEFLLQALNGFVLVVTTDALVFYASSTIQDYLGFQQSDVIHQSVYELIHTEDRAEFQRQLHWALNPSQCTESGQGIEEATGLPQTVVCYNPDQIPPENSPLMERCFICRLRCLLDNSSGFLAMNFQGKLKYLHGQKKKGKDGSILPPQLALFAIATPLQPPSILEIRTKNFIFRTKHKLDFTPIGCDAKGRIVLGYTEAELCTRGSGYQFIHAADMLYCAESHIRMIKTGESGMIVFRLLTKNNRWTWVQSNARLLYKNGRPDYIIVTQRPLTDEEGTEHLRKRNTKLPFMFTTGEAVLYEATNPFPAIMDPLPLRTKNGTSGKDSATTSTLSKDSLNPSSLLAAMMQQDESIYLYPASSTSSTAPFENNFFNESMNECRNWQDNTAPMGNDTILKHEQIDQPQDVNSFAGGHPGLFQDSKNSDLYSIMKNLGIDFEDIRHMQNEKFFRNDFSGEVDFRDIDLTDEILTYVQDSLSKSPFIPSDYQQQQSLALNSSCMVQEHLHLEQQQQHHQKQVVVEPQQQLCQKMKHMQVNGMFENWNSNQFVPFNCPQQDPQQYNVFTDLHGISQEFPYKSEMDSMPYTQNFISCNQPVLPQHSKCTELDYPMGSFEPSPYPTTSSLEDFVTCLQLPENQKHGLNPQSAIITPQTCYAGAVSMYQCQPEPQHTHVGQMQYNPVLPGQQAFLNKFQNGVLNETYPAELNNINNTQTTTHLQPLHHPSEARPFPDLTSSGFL

[2] = target: T1, Aryl hydrocarbon receptor; assay: Agonist activity at AhR in human HepG2 cells at 5 to 20 nM after 42 hrs in presence of AhR antagonist 3',4'-DMF by luciferase reporter gene assay
[3] = target: T1, Aryl hydrocarbon receptor; assay: Agonist activity at AhR in human HuH7 cells assessed as reduction in IL-1beta induced increase in SAA1 mRNA level at 10 nM pretreated for 20 hrs followed by Il-1beta addition measured after 4 hrs by qRT-PCR analysis; details: 0.01 µM
[4] = target: T1, Aryl hydrocarbon receptor; assay: Agonist activity at AhR in human HepG2 cells at 10 uM after 42 hrs by luciferase reporter gene assay relative to control; details: read-out: FC
[5] = target: T1, Aryl hydrocarbon receptor; assay: Agonist activity at AhR in human HepG2 cells at 1 to 10 uM after 42 hrs by luciferase reporter gene assay relative to control
HepG2 [6] = assay: Cytotoxicity against human HepG2 cells at 1 uM; details: hepg2, 1 µM
[7] = target: T1, Aryl hydrocarbon receptor; assay: Agonist activity at AhR in human HepG2 cells after 42 hrs by luciferase reporter gene assay
HepG2 [8] = assay: Cytotoxicity against human HepG2 cells at 20 uM; details: hepg2, 20 µM
[9] = target: T1, Aryl hydrocarbon receptor; assay: Agonist activity at AhR in human HepG2 cells at 2.5 to 10 uM after 42 hrs in presence of AhR antagonist GNF-351 by luciferase reporter gene assay
[10] = target: T1, Aryl hydrocarbon receptor; assay: Agonist activity at AhR in human HepG2 cells at 2.5 to 10 uM after 42 hrs in presence of AhR antagonist 3',4'-DMF by luciferase reporter gene assay
[11] = target: T1, Aryl hydrocarbon receptor; assay: Agonist activity at AhR in human HepG2 cells at 2.5 to 10 uM after 42 hrs in presence of AhR antagonist CH-223191 by luciferase reporter gene assay
[12] = target: T1, Aryl hydrocarbon receptor; assay: Agonist activity at AhR in human HuH7 cells assessed as reduction in IL-1beta induced increase in SAA1 mRNA level at 10 uM pretreated for 20 hrs followed by Il-1beta addition measured after 4 hrs by qRT-PCR analysis

Clc1cc2c(cc1Cl)Oc1cc(Cl)c(Cl)cc1O2 [2,3,7,8-TETRACHLORODIBENZO-P-DIOXIN]
Activity [1]: Not Active
Activity [2]: Not Active
Activity [3]: Active

C=CC(C)(C)c1c(O)c(CC=C(C)C)c(O)c2c(=O)c3ccc(O)c(O)c3oc12 [GERONTOXANTHONE I]
fold induction at 10 µM [4]: ≥ 2

CC1Oc2cc3oc4c(O)c5c(cc4c(=O)c3c(O)c2C1(C)C)C=CC(C)(C)O5 (stereo unspecified) [GERONTOXANTHONE A]
fold change (FC) [5]: >= 2
Activity (HepG2 [6]): Toxic

CC(C)=CCc1c(O)cc(O)c2c(=O)c3c(CC=C(C)C)c(O)ccc3oc12 [GERONTOXANTHONE H]
fold change (FC) [5]: >= 2

C=CC(C)(C)c1c(O)cc2oc3c(O)c(OCC=C(C)C)ccc3c(=O)c2c1O
fold change (FC) [5]: >= 2

C=CC(C)(C)c1c(O)cc2oc3c(O)c4c(cc3c(=O)c2c1O)C=CC(C)(C)O4 [GERONTOXANTHONE B]
fold change (FC) [5]: >= 2
Activity [7]: Dose-dependent effect
Activity (HepG2 [8]): Toxic
Activity [9]: Not Active
Activity [10]: Not Active
Activity [11]: Active
Activity [12]: Active

CC(C)=CCc1c(O)ccc2oc3c4c(cc(O)c3c(=O)c12)OC(C)(C)C=C4
fold induction at 10 µM [4]: ≥ 2
